{
  "source": "patent USRE50096E1",
  "about": "“Nanoemulsion compositions of taxoid drugs, and methods for the use thereof to target cancer cells and cancer stem cells” (TargaGenix, Inc., priority 2016, dated 2024)",
  "key": {"[1]": {"tested_on": "H460 human non-small cell lung tumor xenograft", "conditions": "mouse, in vivo"}, "[2]": {"tested_on": "H460 human non-small cell lung tumor xenograft", "test": "H460 non-small cell lung tumor xenograft in SCID mice", "conditions": "for tumor growth delay: at (about) MTD"}, "[3]": {"tested_on": "human CFPAC-1 ductal pancreatic adenocarcinoma xenograft", "test": "CFPAC-1 pancreatic adenocarcinoma xenograft in SCID mice", "conditions": "for tumor growth delay as compared to vehicles: mouse, in vivo"}, "[4]": {"tested_on": "human PANC-1 pancreatic tumor xenograft", "test": "PANC-1 pancreatic tumor xenograft in SCID mice", "assay_type": "in vivo, RPCI SCID mice", "conditions": "for complete remissions: mouse, in vivo", "from_the_text": "This experiment compared a q7dx3 with a q3dx3 schedule for PX and DHA-SBT-1214 using a human PANC-1 pancreatic tumor xenograft in RPCI SCID mice."}, "tubulin": {"tested_on": "tubulin", "conditions": "cited from earlier work"}, "[5]": {"tested_on": "paclitaxel-resistant, Pgp(+) DLD1 human colon tumor xenograft", "test": "DLD1 human colon tumor xenograft in SCID mice"}, "CD133+ PPT2 cells": {"tested_on": "CD133+ PPT2 cells", "test": "Stemness gene expression in PPT2 cells (PCR array, Western blot)", "assay_type": "cell-based, human", "method": "Experiments were carried out with a patient-derived cancer stem cell line for prostate cancer, PPT2 (Botchkina 2013, Rowehl 2014). The cell line PPT2 was generated from a patient-derived prostate cancer tumor. […] The PPT2 cell line was serially propagated as NOD/SCID mice tumor xenografts, floating 3D spheroids and type I collagen-adherent cultures. According to the ATCC report (ID number 002872), the PPT2 cells were unique human cells not contaminated with any known established cell lines. Although phenotype of the CSC-enriched cultures was dynamic due to the dual nature of the CSCs (i.e., ability to self-renew and to generate committed progenitors), the PPT2 cells retained a relatively stable phenotype, even up to 8 weeks after MACS-CD133^+ cell sorting and culturing on type I collagen coated surfaces in serum-free medium. […] Both nuclear and cytoplasmic fractions of the PPT2 cells expressed c-Myc, whereas other pluripotency markers (Oct-4 and Sox-2) were detected only in nuclear fraction. […]\nTo characterize possible drug induced alterations in stemness gene expression, CD133^+ PPT2 cells were analyzed before and after treatment with a combination of SBT-1214 and CMC 2.24, a chemically-modified curcumin. […]"}, "HCT116 spheroids": {"tested_on": "HCT116 spheroids", "test": "Colon cancer stem cell 3D spheroids, HCT116", "assay_type": "cell-based, human", "method": "(§1) In another example, stem-cell enriched populations of colon cancer cells were selected from three invasive colon cancer cell lines, HCT116, HT29, and DLD-1. The populations were grown as 3D multicellular spheroids.\nHCT116: SOX1, RPL13A, BMP1, BMP3, NEUROG2, GJB1, GJA1, ASCL2, CTNNA1, GDF2, ALPI, S100B, CD8B1, ACTB, CCND1, FGF1, PARD6A, DVL1, GDF3, ISL1, CD3D, MME, FGFR1, RB1, AIN1, ALDH1A1, CD8A, PPARD, FZD1, NUMB and ABCG2;"}, "HT29 spheroids": {"tested_on": "HT29 spheroids", "test": "Colon cancer stem cell 3D spheroids, HT29", "assay_type": "cell-based, human", "method": "as §1\nHT29: ACAN, ALPI, BMP3, CD3D, CD4, CD8A, CD8B, CDH2, COL2A1, COL9A1, DHH, DLL1, DLL3, DTX1, FGF1, FGF3, FZD1, GDF2, IGF1, MME, MYOD, NCAM1, NEUROG2, S100B, SOX2, and TERT;"}, "DLD-1 spheroids": {"tested_on": "DLD-1 spheroids", "test": "Colon cancer stem cell 3D spheroids, DLD-1", "assay_type": "cell-based, human", "method": "as §1\nDLD-1: CD4, CDH2, COL1A1, DLL1, DTX1, IGF1, FGF3, FZD1, JAG1, KRT15, MSX1, NCAM1 and NOTCH1 (Botchkina, et al., 2010)."}, "[6]": {"tested_on": "drug resistant cancer cells, expressing MDR phenotypes", "conditions": "cited from earlier work"}, "[7]": {"tested_on": "drug resistant (Pgp+) colon tumor xenografts", "conditions": "mouse, in vivo; cited from earlier work"}, "[8]": {"conditions": "80 mg/kg dose on days 5, 8, and 11"}},
  "note": "Read-outs that look alike come from different tables or passages of the source.",
  "data": [
    {"smiles": "CC/C=C\\C/C=C\\C/C=C\\C/C=C\\C/C=C\\C/C=C/CCC(=O)O[C@@H](C(=O)O[C@H]1C[C@@]2(O)[C@@H](OC(=O)c3ccccc3)C3[C@](C)(C(=O)[C@H](OC(C)=O)C(=C1C)C2(C)C)[C@@H](O)C[C@H]1OC[C@@]31OC(C)=O)[C@@H](NC(=O)c1ccccc1)c1ccccc1", "note": "(stereo partly shown) [DHA-paclitaxel, reference compound]", "values": [
      {"measurement": "MTD", "setting": "[1]", "result": 240, "unit": "mg/kg total dose"},
      {"measurement": "tumor growth delay", "setting": "[2]", "result": 3, "unit": "days"},
      {"measurement": "tumor growth delay as compared to vehicles", "setting": "[3]", "result": "only minor tumor growth delay"}
    ]},
    {"smiles": "CC(=O)O[C@H]1C(=O)[C@@]2(C)[C@H]([C@H](OC(=O)c3ccccc3)[C@]3(O)C[C@H](OC(=O)[C@H](O)[C@@H](NC(=O)c4ccccc4)c4ccccc4)C(C)=C1C3(C)C)[C@]1(OC(C)=O)CO[C@@H]1C[C@@H]2O", "note": "[paclitaxel, reference compound]", "values": [
      {"measurement": "complete remissions", "setting": "[4]", "result": "no complete remissions"},
      {"measurement": "tumor growth delay", "setting": "[4]; q3dx3 schedule", "result": 13, "unit": "days"},
      {"measurement": "tumor growth delay", "setting": "[4]; q7dx3 schedule", "result": 18, "unit": "days"},
      {"measurement": "time to polymerize tubulin", "setting": "tubulin", "result": "hours"},
      {"measurement": "efficacy against tumor xenograft", "setting": "[5]; s.c. xenograft", "result": "totally ineffective"},
      {"measurement": "tumor growth delay", "setting": "[2]", "result": 8, "unit": "days"},
      {"measurement": "MTD", "setting": "[2]; mouse, in vivo", "result": 75, "unit": "mg/kg total dose"},
      {"measurement": "tumor growth delay as compared to vehicles", "setting": "[3]", "result": "only minor tumor growth delay"}
    ]},
    {"smiles": "CC(=O)O[C@@]12CO[C@@H]1C[C@H](O)[C@@]1(C)C(=O)[C@H](OC(=O)C3CC3)C3=C(C)[C@@H](OC(=O)[C@H](O)[C@H](C=C(C)C)NC(=O)OC(C)(C)C)C[C@@](O)([C@@H](OC(=O)c4ccccc4)[C@H]21)C3(C)C", "note": "[SBT-1214]", "values": [
      {"measurement": "expression of p21 and p53", "setting": "CD133+ PPT2 cells", "result": "induced expression"},
      {"measurement": "c-Myc and Sox2 in nuclear extracts (Western blot)", "setting": "CD133+ PPT2 cells; CD133+ and bulk PPT2 cells", "result": "moderate down-regulation"},
      {"measurement": "growth of the secondary spheroids", "setting": "HCT116 spheroids; 100 nM for 48 h", "result": "marked suppression"},
      {"measurement": "cytotoxicity in spheroids", "setting": "HCT116 spheroids; 3D multicellular spheroids", "result": "effectively induced cytotoxicity"},
      {"measurement": "stemness-associated genes", "setting": "HCT116 spheroids; gene list", "result": "downregulated"},
      {"measurement": "growth of the secondary spheroids", "setting": "HT29 spheroids; 100 nM for 48 h", "result": "marked suppression"},
      {"measurement": "cytotoxicity in spheroids", "setting": "HT29 spheroids; 3D multicellular spheroids", "result": "effectively induced cytotoxicity"},
      {"measurement": "stemness-associated genes", "setting": "HT29 spheroids; gene list", "result": "downregulated"},
      {"measurement": "growth of the secondary spheroids", "setting": "DLD-1 spheroids; 100 nM for 48 h", "result": "marked suppression"},
      {"measurement": "cytotoxicity in spheroids", "setting": "DLD-1 spheroids; 3D multicellular spheroids", "result": "effectively induced cytotoxicity"},
      {"measurement": "stemness-associated genes", "setting": "DLD-1 spheroids; gene list", "result": "downregulated"},
      {"measurement": "potency relative to paclitaxel", "setting": "[6]", "result": "2-3 orders of magnitude"},
      {"measurement": "long-term regression and tumor growth delay", "setting": "[7]", "result": 167, "unit": "days"},
      {"measurement": "tumor growth delay", "setting": "[7]", "result": "> 187", "unit": "days"},
      {"measurement": "tumor regression", "setting": "[7]", "result": "complete regression in all surviving mice"},
      {"measurement": "time to polymerize tubulin", "setting": "tubulin", "result": "a matter of minutes"},
      {"measurement": "tumor growth delay", "setting": "[2]", "result": 34, "unit": "days"},
      {"measurement": "MTD", "setting": "[2]; mouse, in vivo", "result": "~120", "unit": "mg/kg total dose"},
      {"measurement": "weight loss", "setting": "[3]; until day 20, 120 mg/kg total dose", "result": "< 4", "unit": "%"}
    ]},
    {"smiles": "CC/C=C\\C/C=C\\C/C=C\\C/C=C\\C/C=C\\C/C=C\\CCC(=O)O[C@@H](C(=O)O[C@H]1C[C@@]2(O)[C@@H](OC(=O)c3ccccc3)[C@@H]3[C@]4(OC(C)=O)CO[C@@H]4C[C@H](O)[C@@]3(C)C(=O)[C@H](OC(=O)C3CC3)C(=C1C)C2(C)C)[C@H](C=C(C)C)NC(=O)OC(C)(C)C", "note": "[DHA-SBT-1214]", "values": [
      {"measurement": "maximum tolerated dose (MTD)", "setting": "[4]; 80 mg/kg x 3 inj", "result": 240, "unit": "mg/kg total dosage"},
      {"measurement": "toxic death", "setting": "[4]; 300 mg/kg total dose", "result": "one toxic death"},
      {"measurement": "tumor growth delay", "setting": "[4]; both schedules, q7dx3 and q3dx3", "result": "> 90", "unit": "days"},
      {"measurement": "complete remissions", "setting": "[4]", "result": "achieved complete remissions"},
      {"measurement": "complete regression of the DLD-1 tumor", "setting": "[5]; [8]", "result": "5 of 5"},
      {"measurement": "tumor growth delay", "setting": "[5]; [8]", "result": "> 187", "unit": "days"},
      {"measurement": "tumor growth delay", "setting": "[2]", "result": 55, "unit": "days"},
      {"measurement": "MTD", "setting": "[2]; mouse, in vivo", "result": "~240", "unit": "mg/kg total dose"},
      {"measurement": "tolerability", "setting": "[2]; mouse, in vivo", "result": "clearly better tolerated than SBT-1214"},
      {"measurement": "weight loss", "setting": "[3]; 240 mg/kg or 300 mg/kg total dose", "result": "negligible"}
    ]}
  ]
}
